Where no end group is shown, it is not given here. The star is where a group is joined. Biotin = O=C1N[C@H]2[C@H](CS[C@H]2CCCCC(=O)*)N1
How the values were obtained:
lungs = settings: administered to the lungs; U.S. Pat. Nos. 9,504,796 and 9,693,990; cited from earlier work
adult rat lung = assay: Facilitation of dilute […] by negatively charged solutes in the adult rat lung; settings: solute at 5 w/v %
Description: Method 1. […] Alveolar air pressure is determined with a transducer at the trachea of the constantly-inflated lung. Alveolar liquid phase pressure is determined by servo-nulling pressure measurement.

[1] = system: rats with model lung injury; assay: Therapeutic IV SRB administration in vivo in rats with model lung injury (injurious ventilation, then 4-hr support); settings: rat, target plasma concentration 10 nM
Description: The therapeutic efficiencies of clinical method analogues, including tracheal instillation, intravascular (IV) administration, etc. of various surface tension-lowering components can be tested in an animal following generation of model lung injury in the animal. For example, therapeutic IV SRB administration was tested in vivo in rats with model lung injury, as follows. All animals were handled in accord with a protocol approved by the Stevens Institute of Technology Institutional Animal Care and Use Committee. First, the model lung injury was generated by ventilating an anesthetized rat with an excessive tidal (breath) volume (VT) of 42 ml/kg body weight and an end-expiratory pressure of zero for 15 min to physically injure the lungs. Then, modeling clinical treatment of a patient with lung injury, VT was reduced to a protective level of 6 ml/kg, end-expiratory pressure was increased to a positive, protective level of 2 or 10 cm H2O, and the rat continued to be supported by mechanical ventilation for 4 hrs. SRB was administered IV, targeting a plasma concentration of 10 nM, after the injury period and at the start of the support period, mimicking therapeutic administration after the development of respiratory distress but prior to supportive treatment by mechanical ventilation. Oxygenation was tracked during the 4-hr support period. At the end of the support period, the rat was sacrificed, the lungs were isolated, and alveolar T was determined in situ in the isolated lungs using Method 1, above. In lungs from rats sacrificed at the end of the 4-hr support period, T was determined in one aerated alveolus and one flooded alveolus.

[2] = system: alveoli of isolated rat lungs; settings: injected into alveoli of isolated lungs in situ; SRB 1 nM-1,000 nM with albumin 3-12 w/v % in alveolar liquid; cited from earlier work
[3] = system: alveolar-capillary barrier of heterogeneously flooded regions, isolated adult rat lung; settings: injected into alveoli of isolated lungs in situ; SRB 1 nM-1,000 nM with albumin 3-12 w/v % in alveolar liquid; cited from earlier work
[4] = system: alveoli of isolated rat lungs; assay: Surface tension determination in the isolated adult rat lung (Method 1), solutions injected into alveoli in situ; settings: for surface tension (T): alveolar administration
Description: Method 1. Surface tension determination in the isolated adult rat lung. In an isolated (excised) adult rat lung, the alveolar liquid is labeled with a fluorescent dye verified not to alter surface tension. T is determined as follows at a curved region of the alveolar air-liquid interface (e.g., the meniscus in a flooded alveolus or the corner of an aerated alveolus). Alveolar air pressure is determined with a transducer at the trachea of the constantly-inflated lung. Alveolar liquid phase pressure is determined by servo-nulling pressure measurement. The three-dimensional interfacial radius of curvature is determined by confocal microscopy. The surface tension is calculated according to the Laplace relation.
Alveoli of isolated rat lungs were injected (or flooded) in situ with various solutions or components and the effects on alveolar surface tension were compared. The accompanying FIG. 1 includes a composite bar chart comparing T values resulting from treatment with various solutions or components. Details, including the compositions and concentrations of any administered solutions or components, are shown below the x-axis of the chart. In more detail, the rat lungs were micropunctured, optionally flooded with red blood cell (RBC) homogenate alone, with albumin, or with albumin and SRB. […] Half of these samples receiving the second injection were additionally subjected to 50 ventilation cycles at the noted pressures. Additional experimental details are described in the Methods section of Nguyen, T L and Perlman, C E, “Sulforhodamine B and exogenous surfactant effects on alveolar surface tension under acute respiratory distress syndrome conditions,” J. Appl. Physiol. 2020, 129(6), 1505-1513, the entire content of which is incorporated herein by reference.
With reference to the accompanying FIG. 1 and its chart, the first data point (bar) corresponds to normal, aerated alveoli in normal lungs, as a control. The red blood cell homogenate was added to the remaining data points to simulate epithelial damage and hemorrhaging of the alveolar capillaries, as may be present in some cases of ARDS.

[5] = system: alveolar-capillary barrier of heterogeneously flooded regions, isolated adult rat lung; assay: Ventilation 'injury score' in the isolated adult rat lung (Method 2); settings: flooding solution in normal saline with 5% albumin; solutes at about the concentrations present in 1% SURVANTA; FIG. 2A
Source text: Solutes are at about the same concentrations as present in 1% […]® solution. The surfactant protein B (SP-B) and SP-C used are isolated from pulmonary alveolar proteinosis patients; the SP-C, thus, is likely a mixture of fully-, partially- and non-palmitoylated peptide. Two forms of synthetic SP-C are used. One is sSP-Cff-leuc. […] Due to pre-dissolution of certain solutes, at high concentration, in non-aqueous solvents, the final dipalmitoylphosphatidylcholine (DPPC) solution contains 2% methanol; the final SP-B and SP-C solutions contain 1.6% chloroform and 0.8% methanol; and the final sSP-Cff-leuc solution contains 1.3% chloroform and 1.3% ethanol.
Base solution for all groups is normal saline.
Method 2. Ventilation ‘injury score’ in the isolated adult rat lung. An isolated adult rat lung is perfused with a physiologic solution (i.e. the solution is pumped through the lung vessels, including the capillaries) containing a low concentration of a fluorescent dye verified not to alter surface tension. A surface alveolus of the lung is micropunctured and a non-fluorescent test solution is injected. In experimental regions, a sufficiently large volume of liquid is injected to generate a pattern of heterogeneous alveolar flooding; in control regions, a sufficiently small volume of liquid is injected so that the liquid spontaneously clears from the region, leaving behind a micropunctured-but-aerated region. The region is imaged by confocal microscopy over a five minute baseline period at a constant transpulmonary pressure of 5 cm H2O. Five ventilation cycles are supplied to the lung at 0.33 Hz with the equivalent of a positive end-expiratory pressure of 15 cm H2O and with a tidal volume of 6 ml/kg body weight. The lung is then returned to a constant transpulmonary pressure of 5 cm H2O and imaged for 10 additional minutes. Alveolar liquid fluorescence at all time points is normalized by capillary fluorescence.
At baseline, alveolar liquid fluorescence (in flooded alveoli of experimental regions or in the liquid lining layer of control, aerated regions) is low and constant in all regions. Following ventilation, alveolar liquid fluorescence remains unchanged in aerated regions but continually increases with time in heterogeneously flooded regions. […] The increase above baseline in normalized alveolar liquid fluorescence at the last time point of the experiment is used as an injury score. The injury score, which indicates the rate of increase of normalized fluorescence following ventilation, correlates with the surface tension of the test solution.

[6] = low concentrations, in the presence of albumin; reported in an earlier patent publication; cited from earlier work
immature fetal rat lung = assay: Opening pressure of the immature fetal rat lung after tracheal instillation (Method 3); settings: 4-5 μl instilled in trachea, embryonic day 18 or 19; with 5% albumin; 1% SURVANTA, 0.0005% SP-C; FIG. 3
Description: Solution (4-5 μl), with solutes as specified, is instilled in the trachea of the fluid-filled immature (embryonic day 18 or 19) fetal rat lung. The pressure required to inflate the fetal rat lung for the first time is proportional to surface tension. […] The sSP-Cff-ion lock used is not biotinylated and is dissolved directly in normal saline without additional solvents. n=1 or 2/group.
Method 3. Opening pressure of the immature fetal rat lung. To inflate the initially liquid-filled fetal lung for the first time, the pressure applied at the trachea must be sufficient to overcome a capillary force that is proportional to the surface tension of the liquid in the lung. Thus, following instillation of a test solution in the trachea of the immature fetal rat lung, the opening pressure of the lung is indicative of the surface tension of the test solution. At embryonic day 18 or 19 (term=day 22), a fetus is delivered from a pregnant rat by uterotomy. […] The opening pressure that causes air to flow into the lungs is recorded, and is proportional to the solution surface tension.

## rhodamine WT
lungs
  redistribution of edema liquid among alveoli: promoting equitable redistribution of edema liquid among alveoli
  surface tension: capable of lowering surface tension

## fibrinogen
Adult rat lung
  facilitation of the surface activity of 1 vol % SURVANTA: also facilitate 1 vol % SURVANTA®

## CCN(CC)c1ccc2c(-c3ccc(S(=O)(=O)O)cc3S(=O)(=O)[O-])c3ccc(=[N+](CC)CC)cc-3oc2c1 [SRB, sulforhodamine B]
[1]
  plasma markers of lung injury and inflammation: reduce plasma markers of lung injury and inflammation
  ventilation-induced lung injury (VILI): reduce VILI
[1]; after injury period, end of 4-hr support period
  alveolar surface tension (T), determined in isolated lungs after sacrifice: reduce surface tension specifically in flooded/injured alveoli
[1]; tracked during 4-hr support period
  oxygenation: improve oxygenation
lungs
  redistribution of edema liquid among alveoli: promoting equitable redistribution of edema liquid among alveoli
  surface tension: capable of lowering surface tension
[2]
  surface tension: lower surface tension
[3]
  ventilation injury of flooded alveoli: protect against ventilation injury of flooded alveoli
[4]; RBC homogenate plus albumin, FIG. 1
  speed of T lowering compared with exogenous surfactant: acts faster than exogenous surfactant
[4]; T increased by cell debris
  surface tension (T): reduce T
[4]; T increased by secretory phospholipase A2 (sPLA2)
  surface tension (T): reduce T
[4]; alveoli flooded with RBC homogenate, albumin and SRB included, FIG. 1 bars 4, 7, 8
  alveolar surface tension (T): immediately decreased/normalized

## CCCCCCCCCCCCCCCC(=O)OC[C@H](COP(=O)([O-])OCC[N+](C)(C)C)OC(=O)CCCCCCCCCCCCCCC [DPPC, dipalmitoylphosphatidylcholine, reference compound]
[5]
  injury score (thus surface tension): not those containing DPPC or SP-B

## GIPFFPVHLKRLLIVVVVVELIVKVIVGALLMGL (SEQ ID NO:3) (sSP-Cff-ion lock)
[6]
  surface tension in the lungs: can lower surface tension in the lungs
Immature fetal rat lung
  opening pressure (proportional to surface tension), compared with 100% SURVANTA without albumin: at least as effective as 100% SURVANTA in the absence of albumin

## GIPFFPVHLKRLKLLLLLLLLILLLILGALLMGL (SEQ ID NO:2) (sSP-Cff-leuc)
[6]
  surface tension in the lungs: can lower surface tension in the lungs
[5]
  injury score (thus surface tension): lower injury score

## sSP-Cff-ion lock-B: variant of sSP-Cff-ion lock with a biotinylated N-terminal (Biotin-GIPFFPVHLKRLLIVVVVVELIVKVIVGALLMGL)
[6]
  surface tension in the lungs: can lower surface tension in the lungs
[5]
  injury score (thus surface tension): lower injury score

B1: SP-B: surfactant protein B isolated from pulmonary alveolar proteinosis patients (protein, UniProt P07988 201-279, looked up)
Pulmonary …: FPIPLPYCWLCRALIKRIQAMIPKGALAVAVAQVCRVVPLVAGGICQCLAERYSVILLDTLLGRMLPQLVCRLVLRCSM
modifications: Pulmonary surfactant-associated protein B
notes: surfactant protein B isolated from pulmonary alveolar proteinosis patients
[5]
  injury score (thus surface tension): not those containing DPPC or SP-B

From patent US20240091319A1, “DUAL-ADMINISTRATION METHODS FOR TREATING RESPIRATORY DISTRESS” (THE TRUSTEES OF THE STEVENS INSTITUTE OF TECHNOLOGY, priority 2021, published 2024)
